Results published in patent publication US10961248B2, “Pesticidally active heterocyclic derivatives with sulfur containing substituents” (SYNGENTA PARTICIPATIONS AG, priority 2016, dated 2021).

Assays:
Format in all cases: in vivo
[1] = tested on: Spodoptera littoralis (Egyptian Cotton Leaf Worm); assay: Example B7: activity against Spodoptera littoralis, sprayed cotton leaf discs; conditions: foliar, 72 h, application rate 200 ppm, L1 larvae, 3 days after infestation
Procedure: Cotton leaf discs were placed onto agar in 24-well microtiter plates and sprayed with aqueous test solutions prepared from 10'000 ppm DMSO stock solutions. After drying the leaf discs were infested with five L1 larvae. The samples were assessed for mortality, anti-feeding effect, and growth inhibition in comparison to untreated samples 3 days after infestation. Control of Spodoptera littoralis by a test sample is given when at least one of the categories mortality, anti-feedant effect, and growth inhibition is higher than the untreated sample.

[2] = tested on: Diabrotica Balteata (Corn Root Worm); assay: Example B7: activity against Diabrotica balteata, sprayed maize sprouts; conditions: 96 h, application rate 200 ppm, L2 larvae, 4 days after infestation, read-out: effect in at least one of the two categories (mortality or growth inhibition)
Procedure: Maize sprouts placed onto an agar layer in 24-well microtiter plates were treated with aqueous test solutions prepared from 10'000 ppm DMSO stock solutions by spraying. After drying, the plates were infested with L2 larvae (6 to 10 per well). The samples were assessed for mortality and growth inhibition in comparison to untreated samples 4 days after infestation.

[3] = tested on: Bemisia tabaci (Cotton White Fly); assay: Example B5: activity against Bemisia tabaci, sprayed cotton leaf discs; conditions: foliar, 144 h, application rate 200 ppm, adult white flies, 6 days after incubation
Procedure: Cotton leaf discs were placed on agar in 24-well microtiter plates and sprayed with aqueous test solutions prepared from 10'000 ppm DMSO stock solutions. After drying the leaf discs were infested with adult white flies. The samples were checked for mortality 6 days after incubation.

[4] = tested on: Myzus persicae (Green Peach Aphid); assay: Example B2: activity against Myzus persicae, sprayed sunflower leaf discs; conditions: foliar, 144 h, application rate 200 ppm, aphid population of mixed ages, 6 days after infestation
Procedure: (§1) Sunflower leaf discs were placed on agar in a 24-well microtiter plate and sprayed with aqueous test solutions prepared from 10'000 ppm DMSO stock solutions. After drying, the leaf discs were infested with an aphid population of mixed ages. The samples were assessed for mortality 6 days after infestation.

[5] = tested on: Frankliniella occidentalis (Western Flower Thrips); assay: Example B4: activity against Frankliniella occidentalis, sprayed sunflower leaf discs; conditions: foliar, 168 h, application rate 200 ppm, population of mixed ages, 7 days after infestation
Procedure: as §1, with “in” for “in a”, “plates” for “plate”, “10'000” for “10'000 ppm”, “drying” for “drying,”, “a Frankliniella” for “an aphid”, “7” for “6”

[6] = tested on: Plutella xylostella (Diamond Back Moth); assay: Example B1: activity against Plutella xylostella, artificial diet in 24-well plates; conditions: 120 h, application rate 200 ppm, L2 larvae on artificial diet, 5 days after infestation, read-out: effect in at least one of the two categories (mortality or growth inhibition)
Procedure: 24-well microtiter plates with artificial diet were treated with aqueous test solutions prepared from 10'000 ppm DMSO stock solutions by pipetting. After drying, the plates were infested with L2 larvae (10 to 15 per well). The samples were assessed for mortality and growth inhibition in comparison to untreated samples 5 days after infestation.

[7] = tested on: Euschistus heros (Neotropical Brown Stink Bug); assay: Example B6: activity against Euschistus heros, sprayed soybean leaf; conditions: 120 h, application rate 200 ppm, N-2 nymphs, 5 days after infestation, read-out: effect in at least one of the two categories (mortality or growth inhibition)
Procedure: Soybean leaf on agar in 24-well microtiter plates were sprayed with aqueous test solutions prepared from 10'000 ppm DMSO stock solutions. After drying the leaf were infested with N-2 nymphs. The samples were assessed for mortality and growth inhibition in comparison to untreated samples 5 days after infestation.

[8] = tested on: Myzus persicae (Green Peach Aphid); assay: Example B3: activity against Myzus persicae, roots of pea seedlings in test solution; conditions: 144 h, test rate 24 ppm, roots of infested pea seedlings in test solution, 6 days
Procedure: Roots of pea seedlings infested with an aphid population of mixed ages were placed directly in the aqueous test solutions prepared from 10'000 DMSO stock solutions. The samples were assessed for mortality 6 days after placing seedlings in test solutions.

CCS(=O)(=O)c1cc(N=S(C)(=O)C2CC2)cnc1-c1cn2cnc(C(F)(F)F)cc2n1 (stereo not drawn) [P8, cyclopropyl-[[5-ethylsulfonyl-6-[7-(trifluoromethyl)imidazo[1,2-c]pyrimidin-2-yl]-3-pyridyl]imino]-methyl-oxo-λ^6-sulfane]
≥ 80%: percent control (mortality, anti-feedant effect or growth inhibition) at 200 ppm [1] | percent effect (mortality or growth inhibition) at 200 ppm [2] | mortality at 200 ppm [3] | mortality at 200 ppm [4] | mortality at 200 ppm [5] | percent effect (mortality or growth inhibition) at 200 ppm [6] | percent effect (mortality or growth inhibition) at 200 ppm [7] | mortality at 24 ppm [8]

CCS(=O)(=O)c1cc(N=S2(=O)CCOCC2)cnc1-c1cn2cnc(C(F)(F)F)cc2n1 [P22, 4-[[5-ethylsulfonyl-6-[7-(trifluoromethyl)imidazo[1,2-c]pyrimidin-2-yl]-3-pyridyl]imino]-1,4-oxathiane 4-oxide]
≥ 80%: percent control (mortality, anti-feedant effect or growth inhibition) at 200 ppm [1] | mortality at 200 ppm [3] | mortality at 200 ppm [4] | mortality at 200 ppm [5] | percent effect (mortality or growth inhibition) at 200 ppm [6] | percent effect (mortality or growth inhibition) at 200 ppm [7] | mortality at 24 ppm [8]

CCS(=O)(=O)c1cc(N=S2(=O)CCCC2)cnc1-c1nc2cc(C(F)(F)F)ncc2n1C [P6, 1-[[5-ethylsulfonyl-6-[3-methyl-6-(trifluoromethyl)imidazo[4,5-c]pyridin-2-yl]-3-pyridyl]imino]thiolane 1-oxide]
≥ 80%: mortality at 200 ppm [3] | mortality at 200 ppm [4] | mortality at 200 ppm [5] | percent effect (mortality or growth inhibition) at 200 ppm [6] | percent effect (mortality or growth inhibition) at 200 ppm [7] | mortality at 24 ppm [8]

CCSc1cc(N=S(C)(C)=O)cnc1-c1nc2cc(C(F)(F)F)ncc2n1C [P20, [5-ethylsulfanyl-6-[3-methyl-6-(trifluoromethyl)imidazo[4,5-c]pyridin-2-yl]-3-pyridyl]imino-dimethyl-oxo-λ^6-sulfane]
≥ 80%: percent effect (mortality or growth inhibition) at 200 ppm [2] | mortality at 200 ppm [4] | mortality at 200 ppm [5] | percent effect (mortality or growth inhibition) at 200 ppm [7] | mortality at 24 ppm [8]

CCS(=O)(=O)c1cc(N=S(C)(=O)C2CC2)ccc1-c1cn2cnc(C(F)(F)F)cc2n1 (stereo not drawn) [P15, cyclopropyl-[3-ethylsulfonyl-4-[7-(trifluoromethyl)imidazo[1,2-c]pyrimidin-2-yl]phenyl]imino-methyl-oxo-λ^6-sulfane]
≥ 80%: percent effect (mortality or growth inhibition) at 200 ppm [2] | mortality at 200 ppm [4] | percent effect (mortality or growth inhibition) at 200 ppm [6] | percent effect (mortality or growth inhibition) at 200 ppm [7]

CCS(=O)(=O)c1cc(N=S(C)(=O)CC)cnc1-c1nc2cc(C(F)(F)F)ncc2n1C (stereo not drawn) [P19, ethyl-[[5-ethylsulfonyl-6-[3-methyl-6-(trifluoromethyl)imidazo[4,5-c]pyridin-2-yl]-3-pyridyl]imino]-methyl-oxo-λ^6-sulfane]
≥ 80%: percent effect (mortality or growth inhibition) at 200 ppm [2] | mortality at 200 ppm [3] | mortality at 200 ppm [4] | mortality at 200 ppm [5] | percent effect (mortality or growth inhibition) at 200 ppm [6] | percent effect (mortality or growth inhibition) at 200 ppm [7] | mortality at 24 ppm [8]

CCS(CC)=Nc1cnc(-c2nc3cc(C(F)(F)F)ncc3n2C)c(S(=O)(=O)CC)c1 [P18]
≥ 80%: percent effect (mortality or growth inhibition) at 200 ppm [2] | mortality at 200 ppm [4] | percent effect (mortality or growth inhibition) at 200 ppm [7]

CCS(=O)(=O)c1cc(N=S2(=O)CCC2)cnc1-c1cn2cnc(C(F)(F)F)cc2n1 [P13, 1-[[5-ethylsulfonyl-6-[7-(trifluoromethyl)imidazo[1,2-c]pyrimidin-2-yl]-3-pyridyl]imino]thietane 1-oxide]
≥ 80%: percent control (mortality, anti-feedant effect or growth inhibition) at 200 ppm [1] | mortality at 200 ppm [3] | mortality at 200 ppm [4] | mortality at 200 ppm [5] | percent effect (mortality or growth inhibition) at 200 ppm [6] | percent effect (mortality or growth inhibition) at 200 ppm [7] | mortality at 24 ppm [8]

CCS(=O)(=O)c1cc(N=S2(=O)CCOCC2)cnc1-c1nc2cc(C(F)(F)F)ncc2n1C [P5, 4-[[5-ethylsulfonyl-6-[3-methyl-6-(trifluoromethyl)imidazo[4,5-c]pyridin-2-yl]-3-pyridyl]imino]-1,4-oxathiane 4-oxide]
≥ 80%: percent control (mortality, anti-feedant effect or growth inhibition) at 200 ppm [1] | mortality at 200 ppm [3] | mortality at 200 ppm [4] | mortality at 200 ppm [5] | percent effect (mortality or growth inhibition) at 200 ppm [6] | percent effect (mortality or growth inhibition) at 200 ppm [7] | mortality at 24 ppm [8]

CCS(=O)(=O)c1cc(N=S(C)(C)=O)cnc1-c1cn2cnc(C(F)(F)F)cc2n1 [P1, [5-ethylsulfonyl-6-[7-(trifluoromethyl)imidazo[1,2-c]pyrimidin-2-yl]-3-pyridyl]imino-dimethyl-oxo-λ^6-sulfane]
≥ 80%: percent control (mortality, anti-feedant effect or growth inhibition) at 200 ppm [1] | mortality at 200 ppm [3] | mortality at 200 ppm [4] | mortality at 200 ppm [5] | percent effect (mortality or growth inhibition) at 200 ppm [6] | percent effect (mortality or growth inhibition) at 200 ppm [7] | mortality at 24 ppm [8]

CCS(=O)(=O)c1cc(N=S2(=O)CCOCC2)ccc1-c1nc2cc(C(F)(F)F)ncc2n1C [P21, 4-[3-ethylsulfonyl-4-[3-methyl-6-(trifluoromethyl)imidazo[4,5-c]pyridin-2-yl]phenyl]imino-1,4-oxathiane 4-oxide]
≥ 80%: mortality at 200 ppm [3] | percent effect (mortality or growth inhibition) at 200 ppm [7] | mortality at 24 ppm [8]

CCS(=O)(=O)c1cc(N=S(C)(C)=O)ccc1-c1cn2cnc(C(F)(F)F)cc2n1 [P14, [3-ethylsulfonyl-4-[7-(trifluoromethyl)imidazo[1,2-c]pyrimidin-2-yl]phenyl]imino-dimethyl-oxo-λ^6-sulfane]
≥ 80%: mortality at 200 ppm [3] | mortality at 200 ppm [4] | percent effect (mortality or growth inhibition) at 200 ppm [6] | percent effect (mortality or growth inhibition) at 200 ppm [7] | mortality at 24 ppm [8]

CCS(=O)(=O)c1cc(N=S(C)(=O)C2CC2)cnc1-n1cc2cnc(C(F)(F)F)cc2n1 (stereo not drawn) [P12, cyclopropyl-[[5-ethylsulfonyl-6-[6-(trifluoromethyl)pyrazolo[4,3-c]pyridin-2-yl]-3-pyridyl]imino]-methyl-oxo-λ^6-sulfane]
≥ 80%: percent control (mortality, anti-feedant effect or growth inhibition) at 200 ppm [1] | percent effect (mortality or growth inhibition) at 200 ppm [2] | mortality at 200 ppm [3] | mortality at 200 ppm [4] | mortality at 200 ppm [5] | percent effect (mortality or growth inhibition) at 200 ppm [6] | percent effect (mortality or growth inhibition) at 200 ppm [7]

CCS(=O)(=O)c1cc(N=S(C)C)cnc1-c1nc2cc(C(F)(F)F)ncc2n1C [P17, [5-ethylsulfonyl-6-[3-methyl-6-(trifluoromethyl)imidazo[4,5-c]pyridin-2-yl]-3-pyridyl]imino-dimethyl-λ^4-sulfane]
≥ 80%: percent effect (mortality or growth inhibition) at 200 ppm [2] | mortality at 200 ppm [4] | percent effect (mortality or growth inhibition) at 200 ppm [7]

CCS(=O)(=O)c1cc(N=S(C)(C)=O)cnc1-n1cc2cnc(C(F)(F)F)cc2n1 [P16, [5-ethylsulfonyl-6-[6-(trifluoromethyl)pyrazolo[4,3-c]pyridin-2-yl]-3-pyridyl]imino-dimethyl-oxo-λ^6-sulfane]
≥ 80%: percent control (mortality, anti-feedant effect or growth inhibition) at 200 ppm [1] | percent effect (mortality or growth inhibition) at 200 ppm [2] | mortality at 200 ppm [3] | mortality at 200 ppm [4] | mortality at 200 ppm [5] | percent effect (mortality or growth inhibition) at 200 ppm [6] | percent effect (mortality or growth inhibition) at 200 ppm [7] | mortality at 24 ppm [8]
